System: Wistar (Crl:WI(Han)) rats
Assay: Mass spectrometry-based plasma metabolite profiling of rats treated with known inducers of thyroid function impairment
Format: in vivo, rat
Settings: female rats, ratio of group medians vs controls, Table 3
Excerpt: At the beginning of the study the animals were 10-11 weeks old. Each dose group in the studies consisted of five rats per sex, and was compared with controls (10 rats per sex). […] The dose levels were chosen to show the typical overt (high dose) and slight (low dose) toxicological symptoms of the substances as described in the literature or in BASF internal study reports.
Blood samples were withdrawn from the retro-orbital sinus in all rats under isoflurane anesthesia on study days 7, 14 and 28 after a fasting period of 16-20 hours.
For mass spectrometry-based metabolite profiling analysis, plasma samples were extracted by a proprietary method which delivers a polar and a non-polar fraction. For GC-MS analysis, the non-polar fraction was treated with methanol under acidic conditions to yield the fatty acid methyl esters. Both fractions were further derivatised with Omethyl-hydroxyamine hydrochloride and pyridine to convert oxo groups to Omethyloximes and subsequently with a silylating agent before analysis.
In LC-MS/MS analysis, both fractions were reconstituted in appropriate solvent mixtures. HPLC was performed by gradient elution on reversed phase separation columns. For mass spectrometric detection metanomics proprietary technology was applied, which allows target and high sensitivity MRM (Multiple Reaction Monitoring) profiling in parallel to a full screen analysis. […] Moreover, several hundred additional analytes giving a fingerprint of the sample were included in the methods.
Following comprehensive analytical validation steps, the data for each analyte were normalized against data from pool samples. These samples were run in parallel through the whole process to account for process variability.
The sex- and day-stratified heteroscedastic t-test (“Welch test”) was applied to compare treated groups with respective controls. p-Values and ratios of corresponding group medians were collected as metabolic profiles and fed into a database.

SMILES: Cc1ncc[nH]1 [2-Methylimidazole]
- Arachidonic acid (C20:cis[58,11,14]4) (fh7 (study day 7)): 1.04
- Behenic acid (C22:0) (fh7 (study day 7)): 1.34
- Cholesterol (fh7 (study day 7)): 1.14
- Cysteine (fh7 (study day 7)): 0.70
- Docosahexaenoic acid (C22:cis[4,7,10,13,16,19]6) (fh7 (study day 7)): 1.37
- Dodecanol (fh7 (study day 7)): 1.06
- Eicosanoic acid (C20:0) (fh7 (study day 7)): 1.06
- Glycerol phosphate (fh7 (study day 7)): 1.21
- Heptadecanoic acid (C17:0) (fh7 (study day 7)): 1.14
- Linoleic acid (C18:cis[9,12]2) (fh7 (study day 7)): 1.19
- Nervonic acid C24:(cis[15]1) (fh7 (study day 7)): 1.11
- Palmitic acid (C16:0) (fh7 (study day 7)): 1.21
- Sphingomyelin (d18:1, C16:0) (fh7 (study day 7)): 1.34
- Stearic acid (C18:0) (fh7 (study day 7)): 0.99
- Threonic acid (fh7 (study day 7)): 1.45
- dihomo-gamma-Linolenic acid (C20:cis[8,11,14]3) (fh7 (study day 7)): 0.83
- erythro-Sphingosine (fh7 (study day 7)): 1.38
- gamma-Linolenic acid (C18:cis[6,9,12]3) (fh7 (study day 7)): 0.91
- myo-Inositol-2-phosphate (fh7 (study day 7)): 1.61
- threo-Sphingosine (fh7 (study day 7)): 1.28
- Arachidonic acid (C20:cis[58,11,14]4) (fh14 (study day 14)): 1.20
- Behenic acid (C22:0) (fh14 (study day 14)): 1.25
- Cholesterol (fh14 (study day 14)): 1.41
- Cysteine (fh14 (study day 14)): 0.63
- Docosahexaenoic acid (C22:cis[4,7,10,13,16,19]6) (fh14 (study day 14)): 1.42
- Dodecanol (fh14 (study day 14)): 1.11
- Eicosanoic acid (C20:0) (fh14 (study day 14)): 1.34
- Glycerol phosphate (fh14 (study day 14)): 1.26
- Heptadecanoic acid (C17:0) (fh14 (study day 14)): 1.27
- Linoleic acid (C18:cis[9,12]2) (fh14 (study day 14)): 1.27
- Nervonic acid C24:(cis[15]1) (fh14 (study day 14)): 1.52
- Palmitic acid (C16:0) (fh14 (study day 14)): 1.30
- Sphingomyelin (d18:1, C16:0) (fh14 (study day 14)): 1.26
- Stearic acid (C18:0) (fh14 (study day 14)): 1.02
- Threonic acid (fh14 (study day 14)): 1.26
- dihomo-gamma-Linolenic acid (C20:cis[8,11,14]3) (fh14 (study day 14)): 1.53
- erythro-Sphingosine (fh14 (study day 14)): 1.61
- gamma-Linolenic acid (C18:cis[6,9,12]3) (fh14 (study day 14)): 1.67
- myo-Inositol-2-phosphate (fh14 (study day 14)): 1.60
- threo-Sphingosine (fh14 (study day 14)): 1.63
- Arachidonic acid (C20:cis[58,11,14]4) (fh28 (study day 28)): 1.36
- Behenic acid (C22:0) (fh28 (study day 28)): 1.34
- Cholesterol (fh28 (study day 28)): 1.55
- Cysteine (fh28 (study day 28)): 0.76
- Docosahexaenoic acid (C22:cis[4,7,10,13,16,19]6) (fh28 (study day 28)): 1.27
- Dodecanol (fh28 (study day 28)): 1.05
- Eicosanoic acid (C20:0) (fh28 (study day 28)): 1.15
- Glycerol phosphate (fh28 (study day 28)): 1.26
- Heptadecanoic acid (C17:0) (fh28 (study day 28)): 1.38
- Linoleic acid (C18:cis[9,12]2) (fh28 (study day 28)): 1.21
- Nervonic acid C24:(cis[15]1) (fh28 (study day 28)): 1.74
- Palmitic acid (C16:0) (fh28 (study day 28)): 1.44
- Sphingomyelin (d18:1, C16:0) (fh28 (study day 28)): 1.27
- Stearic acid (C18:0) (fh28 (study day 28)): 1.17
- Threonic acid (fh28 (study day 28)): 0.98
- dihomo-gamma-Linolenic acid (C20:cis[8,11,14]3) (fh28 (study day 28)): 1.26
- erythro-Sphingosine (fh28 (study day 28)): 1.69
- gamma-Linolenic acid (C18:cis[6,9,12]3) (fh28 (study day 28)): 2.30
- myo-Inositol-2-phosphate (fh28 (study day 28)): 1.70
- threo-Sphingosine (fh28 (study day 28)): 1.66

SMILES: Cc1c[nH]nc1C.O=P(O)(O)O [3,4-Dimethylpyrazolphosphat]
- Arachidonic acid (C20:cis[58,11,14]4) (fh7 (study day 7)): 1.36
- Behenic acid (C22:0) (fh7 (study day 7)): 1.31
- Cholesterol (fh7 (study day 7)): 1.24
- Cysteine (fh7 (study day 7)): 0.78
- Docosahexaenoic acid (C22:cis[4,7,10,13,16,19]6) (fh7 (study day 7)): 2.15
- Dodecanol (fh7 (study day 7)): 1.06
- Eicosanoic acid (C20:0) (fh7 (study day 7)): 1.14
- Glycerol phosphate (fh7 (study day 7)): 1.29
- Heptadecanoic acid (C17:0) (fh7 (study day 7)): 1.30
- Linoleic acid (C18:cis[9,12]2) (fh7 (study day 7)): 1.29
- Nervonic acid C24:(cis[15]1) (fh7 (study day 7)): 1.60
- Palmitic acid (C16:0) (fh7 (study day 7)): 1.34
- Sphingomyelin (d18:1, C16:0) (fh7 (study day 7)): 1.28
- Stearic acid (C18:0) (fh7 (study day 7)): 1.30
- Threonic acid (fh7 (study day 7)): 1.51
- dihomo-gamma-Linolenic acid (C20:cis[8,11,14]3) (fh7 (study day 7)): 1.36
- erythro-Sphingosine (fh7 (study day 7)): 1.40
- gamma-Linolenic acid (C18:cis[6,9,12]3) (fh7 (study day 7)): 1.17
- myo-Inositol-2-phosphate (fh7 (study day 7)): 1.26
- threo-Sphingosine (fh7 (study day 7)): 1.27
- Arachidonic acid (C20:cis[58,11,14]4) (fh14 (study day 14)): 1.75
- Behenic acid (C22:0) (fh14 (study day 14)): 1.82
- Cholesterol (fh14 (study day 14)): 1.73
- Cysteine (fh14 (study day 14)): 1.29
- Docosahexaenoic acid (C22:cis[4,7,10,13,16,19]6) (fh14 (study day 14)): 2.19
- Dodecanol (fh14 (study day 14)): 1.17
- Eicosanoic acid (C20:0) (fh14 (study day 14)): 1.61
- Glycerol phosphate (fh14 (study day 14)): 1.69
- Heptadecanoic acid (C17:0) (fh14 (study day 14)): 1.34
- Linoleic acid (C18:cis[9,12]2) (fh14 (study day 14)): 1.29
- Nervonic acid C24:(cis[15]1) (fh14 (study day 14)): 1.60
- Palmitic acid (C16:0) (fh14 (study day 14)): 1.34
- Sphingomyelin (d18:1, C16:0) (fh14 (study day 14)): 1.35
- Stearic acid (C18:0) (fh14 (study day 14)): 1.71
- Threonic acid (fh14 (study day 14)): 1.17
- dihomo-gamma-Linolenic acid (C20:cis[8,11,14]3) (fh14 (study day 14)): 1.80
- erythro-Sphingosine (fh14 (study day 14)): 1.90
- gamma-Linolenic acid (C18:cis[6,9,12]3) (fh14 (study day 14)): 1.87
- myo-Inositol-2-phosphate (fh14 (study day 14)): 1.78
- threo-Sphingosine (fh14 (study day 14)): 1.72
- Arachidonic acid (C20:cis[58,11,14]4) (fh28 (study day 28)): 1.67
- Behenic acid (C22:0) (fh28 (study day 28)): 1.43
- Cholesterol (fh28 (study day 28)): 1.69
- Cysteine (fh28 (study day 28)): 1.00
- Docosahexaenoic acid (C22:cis[4,7,10,13,16,19]6) (fh28 (study day 28)): 2.25
- Dodecanol (fh28 (study day 28)): 1.26
- Eicosanoic acid (C20:0) (fh28 (study day 28)): 1.38
- Glycerol phosphate (fh28 (study day 28)): 1.55
- Heptadecanoic acid (C17:0) (fh28 (study day 28)): 1.39
- Linoleic acid (C18:cis[9,12]2) (fh28 (study day 28)): 1.44
- Nervonic acid C24:(cis[15]1) (fh28 (study day 28)): 1.78
- Palmitic acid (C16:0) (fh28 (study day 28)): 1.55
- Sphingomyelin (d18:1, C16:0) (fh28 (study day 28)): 1.58
- Stearic acid (C18:0) (fh28 (study day 28)): 1.62
- Threonic acid (fh28 (study day 28)): 1.36
- dihomo-gamma-Linolenic acid (C20:cis[8,11,14]3) (fh28 (study day 28)): 1.86
- erythro-Sphingosine (fh28 (study day 28)): 1.54
- gamma-Linolenic acid (C18:cis[6,9,12]3) (fh28 (study day 28)): 1.96
- myo-Inositol-2-phosphate (fh28 (study day 28)): 1.91
- threo-Sphingosine (fh28 (study day 28)): 1.58

— US20120132797A1, “MEANS AND METHODS FOR DIAGNOSING THYROID DISORDERS” (BASF SE, priority 2009, published 2012)
